Series [1] concerns rat model of complete airway occlusion. The following applies: for number of breath attempts during occlusion: FIG. 7D, hydrochloride; for time to respiratory arrest (mean): air control 53.6.
Protocol: Adult male Sprague Dawley rats (AGE median=63, mean=88 days; WEIGHT median=306, mean=329 grams; Envigo Chicago, Ill.) were housed in AAALAC-accredited facilities and maintained on a 12 hour light:dark cycle with a temperature of 23° C. and humidity of 55%, monitored daily, and had unrestricted access to water and food. Urethane (1.5 g/kg ip) was used for anesthesia in all animals.
ECG RECORDINGS—Limb-lead ECG was recorded using copper strips coated with conductive gel wrapped around both forelimbs and the base of the tail. Signals were amplified and filtered to pass 1 Hz to 1 kHz (Model 1800 AC amplifier with headstages; A-M Systems, Sequim, Wash.) and digitized at 2 kHz (Microl401 controlled by Spike 2 software; Cambridge Electronic Design, Cambridge, UK). Rhythm was assessed by reviewing P waves and associated QRS complexes for variations in wave shape, beat-to-beat intervals, and atrial-ventricular coupling.
The raw pulsatile waveform of the pulse oximeter was digitized (2 kHz) with other signals.
INSPIRATORY AIRWAY PRESSURES—A pressure transducer (CyQ, Columbus Instruments, Columbus, Ohio) was connected to the sidearm of a T-shaped tracheal tube (see infra). Inspiratory pressures during complete airway occlusion were measured relative to those observed during baseline breathing. Signals were digitized along with other signals recorded at the same time.
TRACHEAL IMPLANTS—A T-shaped tracheal tube was placed through an incision between cartilaginous rings of the trachea after the trachea was exposed in the neck. The distal arm was “sealed” in the trachea with suture around the trachea, compressing it against the outside wall of the implant.
CONTROLLED AIRWAY OCCLUSION—Obstructive apnea was produced with controlled airway occlusion. The exterior arm in the straight path with the implanted arm served breathing or could be occluded. A pressure transducer on the tracheal tube sidearm recorded forces developed during either normal breathing with the tracheal tube open to the atmosphere or during complete closure of the open port.
Injected volumes were 12.5 ml/kg and averaged 4.25 f 1.00 ml/animal (mean, standard deviation). Fluoxetine hydrochloride (cat #1279804) was obtained from Sigma Aldrich Inc. (St. Louis, Mo.).
Gas was delivered at ˜4 liters/min. In all animals, the occlusion was left in place until 10 seconds after the point of respiratory arrest, which was defined as the time of the peak of the last breath attempt.
Series [2] has as its system audiogenic seizure prone mice. As to conditions: cited from earlier work.
Series [3] concerns audiogenic seizure-prone mice. As to conditions: oxygen, FIG. 3. From the text:
In audiogenic seizure-prone mice, seizures are stereotyped and consist of a running phase, a clonic phase, and a tonic phase that included hindlimb extension.

Setting [4] is: fluoxetine 25 mg/kg IP vs saline.

Entries after “also recorded” stand apart in the source; their conditions may differ. Structures can show the parent of a compound that is named as a salt. Where two headings read alike, the source gives them in different places.

`CNCCC(Oc1ccc(C(F)(F)F)cc1)c1ccccc1` (centres unmarked) [fluoxetine, Fluoxetine hydrochloride]: in series [1] (SSRI group vs saline, bolus gas delivery), the “attempts needed to effect resuscitation after respiratory arrest” value is listed as “required more attempts on average”. In addition, the “increase in the time to respiratory arrest” value in series [1] (fluoxetine 25 mg/kg IP one hour post-injection vs saline) worked out at 28%. Also, in series [1] (setting [4]), the “rate of desaturation during occlusion” value is “did not significantly alter” and the “number of breath attempts during occlusion” value was “no difference”. For the same compound, in series [1] (fluoxetine 25 mg/kg IP vs saline, FIG. 7B), the “inspiratory forces generated during breath attempts while occluded” value is “no apparent differences”. Moreover, the “number of breath attempts during occlusion” value in series [1] (fluoxetine 25 mg/kg IP vs saline, listed as Fluoxetine) is on record as “nearly equivalent”. Further, in series [1] (fluoxetine 25 mg/kg IP vs saline, FIGS. 7E, 7F), the respiratory rate result is reported as “significantly slowed”. For the same compound, in series [1] (fluoxetine 25 mg/kg IP, 60 min before occlusion, n=8, saline control 49.8/49.9), the “time to respiratory arrest (average)” value amounted to 63.8 s. The minimum oxygen saturation in series [1] (fluoxetine 25 mg/kg IP, saline group 37%, not statistically significant) came out at 34%. Further, the protection against death entry in series [2] (multiple strains of audiogenic seizure prone mice (Faingold 2011, 2014; Zeng 2015)) is recorded as “protect against death”.

For `O=O` [oxygen], the “time in tonic hindlimb extension phase” value in series [3] is “unchanged”. Further, the “time to respiratory arrest” value in series [3] is “prolonged”. The total seizure time result in series [3] was “unchanged”. The “increase in the time to respiratory arrest” value in series [1] (50% oxygen/50% air 30 seconds prior to occlusion vs air) came out at 19%; in series [1] (oxygen 30 seconds prior to occlusion vs air) it was 52%; in series [1] (oxygen 5 minutes prior to occlusion vs air) it was 65%. Moreover, the “time to respiratory arrest (mean)” value in series [1] (50% oxygen/50% air for 30 seconds prior to airway occlusion, n=7) was 63.9 s; in series [1] (oxygen atmosphere for 5 minutes prior to airway occlusion) it was 88.4 s; in series [1] (oxygen stream for only 30 seconds prior to airway occlusion (brief O2), n=10), 81.6 s. In series [1] (50% oxygen/50% air for 30 seconds vs air), the “number of breath attempts” value is “significantly increased”. Besides, the “delay in desaturation onset” value in series [1] (animals breathing oxygen versus air, FIG. 1C) was roughly 40 s. In addition, the “minimum pulse oximetry level” value in series [1] (oxygen animals, n=12, mean, standard deviation) is on record as 37%±11. The “time to respiratory arrest relative to room air” value in series [1] (oxygen enriched atmosphere vs room air, FIG. 1A) is “nearly doubled; also recorded: nearly twice as long”. Besides, the “total number of breath attempts during complete airway closure” value in series [1] (oxygen prior to occlusion vs air, FIG. 1D) is recorded as “significantly greater”. The “duration of sustained high level of oxygen saturation before decline” value in series [1] (oxygen-breathing rat, pulse oximetry, FIGS. 2A-2B) is reported as “about 30 seconds”. Further, the “time of last breath attempt (respiratory arrest) after occlusion onset” value in series [1] (single animal, FIG. 2A, oxygen for five minutes before occlusion, air animal 53) was 100 s. Moreover, the “onset of ST segment elevation, bradycardia and premature ventricular contractions post-occlusion” value in series [1] (single animal, FIG. 2A, oxygen for five minutes before occlusion, air animal about 40) was “about 80 seconds”. Further, in series [2] (DBA/2 mice, seizures in an oxygen atmosphere (Venit 2004; Willott 1976)), the “protection from normally fatal audiogenic seizures” value was “protected”. The survival of animals in series [2] (oxygen treatment (Venit 2004; Willott 1976)) was 100%.

These data come from patent US20230263459A1, “DEVICE AND METHOD FOR PREVENTING SUDDEN DEATH AND PROTECTING OXYGEN STATUS DURING SEIZURE ACTIVITY” (priority 2020, published 2023).
